Assay results reported in PubChem BioAssay AID1919010 (Molecular Pharmacology Branch, DTP, NCI, 2023).

Tested on: Hs578T complex spheroid growth, percent test/control
Test: Anticancer human tumor Hs578T cell line growth inhibition [AhR];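 further: luminescent viability signal as a proxy for spheroid growth; spheroids exposed to agents for one week after three days of growth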
Settings: for IC50: curve of first compound; for viability, T/C: stronger effect = lower value
Summary of the method: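 Spheroids combined tumor cells with HUVEC endothelial cells and human MSCs as stroma. AhR antagonists were paired with standard or investigational drugs, each dosed in half-log steps down from near clinical Cmax, or from 10 microM where Cmax was unknown.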

[1] = second compound 0.1 µM, first compound 0.000949 µM
[2] = second compound 0.1 µM, first compound 0.003 µM
[3] = second compound 0.1 µM, first compound 0.00949 µM
[4] = second compound 0.1 µM, first compound 0.03 µM
[5] = second compound 0.1 µM, first compound 0.0949 µM
[6] = second compound 0.1 µM, first compound 0.3 µM
[7] = second compound 0.316 µM, first compound 0.000949 µM
[8] = second compound 0.316 µM, first compound 0.003 µM
[9] = second compound 0.316 µM, first compound 0.00949 µM
[10] = second compound 0.316 µM, first compound 0.03 µM
[11] = second compound 0.316 µM, first compound 0.0949 µM
[12] = second compound 0.316 µM, first compound 0.3 µM
[13] = second compound 1 µM, first compound 0.000949 µM
[14] = second compound 1 µM, first compound 0.003 µM
[15] = second compound 1 µM, first compound 0.00949 µM
[16] = second compound 1 µM, first compound 0.03 µM
[17] = second compound 1 µM, first compound 0.0949 µM
[18] = second compound 1 µM, first compound 0.3 µM
[19] = second compound 3.16 µM, first compound 0.000949 µM
[20] = second compound 3.16 µM, first compound 0.003 µM
[21] = second compound 3.16 µM, first compound 0.00949 µM
[22] = second compound 3.16 µM, first compound 0.03 µM
[23] = second compound 3.16 µM, first compound 0.0949 µM
[24] = second compound 3.16 µM, first compound 0.3 µM
[25] = second compound 10 µM, first compound 0.000949 µM
[26] = second compound 10 µM, first compound 0.003 µM
[27] = second compound 10 µM, first compound 0.00949 µM
[28] = second compound 10 µM, first compound 0.03 µM
[29] = second compound 10 µM, first compound 0.0949 µM
[30] = second compound 10 µM, first compound 0.3 µM
[31] = second compound 0.1 µM, first compound 0.0316 µM
[32] = second compound 0.1 µM, first compound 0.1 µM
[33] = second compound 0.1 µM, first compound 0.316 µM
[34] = second compound 0.1 µM, first compound 1 µM
[35] = second compound 0.1 µM, first compound 3.16 µM
[36] = second compound 0.1 µM, first compound 10 µM
[37] = second compound 0.316 µM, first compound 0.0316 µM
[38] = second compound 0.316 µM, first compound 0.1 µM
[39] = second compound 0.316 µM, first compound 0.316 µM
[40] = second compound 0.316 µM, first compound 1 µM
[41] = second compound 0.316 µM, first compound 3.16 µM
[42] = second compound 0.316 µM, first compound 10 µM
[43] = second compound 1 µM, first compound 0.0316 µM
[44] = second compound 1 µM, first compound 0.1 µM
[45] = second compound 1 µM, first compound 0.316 µM
[46] = second compound 1 µM, first compound 1 µM
[47] = second compound 1 µM, first compound 3.16 µM
[48] = second compound 1 µM, first compound 10 µM
[49] = second compound 3.16 µM, first compound 0.0316 µM
[50] = second compound 3.16 µM, first compound 0.1 µM
[51] = second compound 3.16 µM, first compound 0.316 µM
[52] = second compound 3.16 µM, first compound 1 µM
[53] = second compound 3.16 µM, first compound 3.16 µM
[54] = second compound 3.16 µM, first compound 10 µM
[55] = second compound 10 µM, first compound 0.0316 µM
[56] = second compound 10 µM, first compound 0.1 µM
[57] = second compound 10 µM, first compound 0.316 µM
[58] = second compound 10 µM, first compound 1 µM
[59] = second compound 10 µM, first compound 3.16 µM
[60] = second compound 10 µM, first compound 10 µM

## CC(C)CC(NC(=O)C(Cc1ccccc1)NC(=O)c1cnccn1)B(O)O (stereo not given) + Cc1cncc(-c2nc(NCCc3c[nH]c4ccccc34)c3ncn(C(C)C)c3n2)c1
Second compound 0.1 µM
  IC50: 7 nM
Second compound 0.316 µM
  IC50: 6.66 nM
Second compound 1 µM
  IC50: 5.92 nM
Second compound 3.16 µM
  IC50: 3.77 nM
Second compound 10 µM
  IC50: < 0.949 nM
[1]
  viability, T/C: 101%
[2]
  viability, T/C: 101%
[3]
  viability, T/C: 31.8%
[4]
  viability, T/C: 0.32%
[5]
  viability, T/C: 0.25%
[6]
  viability, T/C: 0.36%
[7]
  viability, T/C: 112%
[8]
  viability, T/C: 101%
[9]
  viability, T/C: 27.3%
[10]
  viability, T/C: 0.39%
[11]
  viability, T/C: 0.31%
[12]
  viability, T/C: 0.31%
[13]
  viability, T/C: 97.8%
[14]
  viability, T/C: 86.5%
[15]
  viability, T/C: 24.8%
[16]
  viability, T/C: 0.28%
[17]
  viability, T/C: 0.19%
[18]
  viability, T/C: 0.29%
[19]
  viability, T/C: 69.4%
[20]
  viability, T/C: 58%
[21]
  viability, T/C: 17.3%
[22]
  viability, T/C: 0.24%
[23]
  viability, T/C: 0.24%
[24]
  viability, T/C: 0.28%
[25]
  viability, T/C: 5.56%
[26]
  viability, T/C: 6.44%
[27]
  viability, T/C: 1.16%
[28]
  viability, T/C: 0.57%
[29]
  viability, T/C: 0.26%
[30]
  viability, T/C: 0.36%

## CCc1c2c(nc3ccc(O)cc13)-c1cc3c(c(=O)n1C2)COC(=O)[C@]3(O)CC + Cc1cncc(-c2nc(NCCc3c[nH]c4ccccc34)c3ncn(C(C)C)c3n2)c1
Second compound 0.1 µM
  IC50: 136 nM
Second compound 0.316 µM
  IC50: 197 nM
Second compound 1 µM
  IC50: 115 nM
Second compound 3.16 µM
  IC50: < 0.949 nM
Second compound 10 µM
  IC50: < 0.949 nM
[1]
  viability, T/C: 74.8%
[2]
  viability, T/C: 78.7%
[3]
  viability, T/C: 74.4%
[4]
  viability, T/C: 64.6%
[5]
  viability, T/C: 53.9%
[6]
  viability, T/C: 43.1%
[7]
  viability, T/C: 83.5%
[8]
  viability, T/C: 78.6%
[9]
  viability, T/C: 80.2%
[10]
  viability, T/C: 70.4%
[11]
  viability, T/C: 61.2%
[12]
  viability, T/C: 43.7%
[13]
  viability, T/C: 77.7%
[14]
  viability, T/C: 67.1%
[15]
  viability, T/C: 68.2%
[16]
  viability, T/C: 59.7%
[17]
  viability, T/C: 52.1%
[18]
  viability, T/C: 41.8%
[19]
  viability, T/C: 38.9%
[20]
  viability, T/C: 42.9%
[21]
  viability, T/C: 38.7%
[22]
  viability, T/C: 29%
[23]
  viability, T/C: 18.2%
[24]
  viability, T/C: 13.8%
[25]
  viability, T/C: 4.74%
[26]
  viability, T/C: 3.51%
[27]
  viability, T/C: 4.95%
[28]
  viability, T/C: 2.72%
[29]
  viability, T/C: 1.85%
[30]
  viability, T/C: 1%

## Nc1ccccc1NC(=O)c1ccc(CNC(=O)OCc2cccnc2)cc1 + Cc1cncc(-c2nc(NCCc3c[nH]c4ccccc34)c3ncn(C(C)C)c3n2)c1
Second compound 0.1 µM
  IC50: 1980 nM
Second compound 0.316 µM
  IC50: 2150 nM
Second compound 1 µM
  IC50: 1820 nM
Second compound 3.16 µM
  IC50: 460 nM
Second compound 10 µM
  IC50: < 31.6 nM
[31]
  viability, T/C: 118%
[32]
  viability, T/C: 115%
[33]
  viability, T/C: 115%
[34]
  viability, T/C: 80.9%
[35]
  viability, T/C: 28.6%
[36]
  viability, T/C: 2.58%
[37]
  viability, T/C: 126%
[38]
  viability, T/C: 116%
[39]
  viability, T/C: 116%
[40]
  viability, T/C: 87.5%
[41]
  viability, T/C: 30.9%
[42]
  viability, T/C: 2.84%
[43]
  viability, T/C: 109%
[44]
  viability, T/C: 106%
[45]
  viability, T/C: 107%
[46]
  viability, T/C: 76.5%
[47]
  viability, T/C: 25.1%
[48]
  viability, T/C: 2.17%
[49]
  viability, T/C: 72%
[50]
  viability, T/C: 69.9%
[51]
  viability, T/C: 55.5%
[52]
  viability, T/C: 36.5%
[53]
  viability, T/C: 10.7%
[54]
  viability, T/C: 0.49%
[55]
  viability, T/C: 4.97%
[56]
  viability, T/C: 4.48%
[57]
  viability, T/C: 2.94%
[58]
  viability, T/C: 3.5%
[59]
  viability, T/C: 0.48%
[60]
  viability, T/C: 0.4%

## O=C(c1cc(Cc2n[nH]c(=O)c3ccccc23)ccc1F)N1CCN(C(=O)C2CC2)CC1 + Cc1cncc(-c2nc(NCCc3c[nH]c4ccccc34)c3ncn(C(C)C)c3n2)c1
Second compound 0.1 µM
  IC50: > 10000 nM
Second compound 0.316 µM
  IC50: > 10000 nM
Second compound 1 µM
  IC50: > 10000 nM
Second compound 3.16 µM
  IC50: > 10000 nM
Second compound 10 µM
  IC50: < 31.6 nM
[31]
  viability, T/C: 122%
[32]
  viability, T/C: 120%
[33]
  viability, T/C: 119%
[34]
  viability, T/C: 114%
[35]
  viability, T/C: 103%
[36]
  viability, T/C: 94.8%
[37]
  viability, T/C: 116%
[38]
  viability, T/C: 118%
[39]
  viability, T/C: 132%
[40]
  viability, T/C: 131%
[41]
  viability, T/C: 114%
[42]
  viability, T/C: 107%
[43]
  viability, T/C: 107%
[44]
  viability, T/C: 117%
[45]
  viability, T/C: 122%
[46]
  viability, T/C: 105%
[47]
  viability, T/C: 103%
[48]
  viability, T/C: 97.7%
[49]
  viability, T/C: 74.7%
[50]
  viability, T/C: 68.6%
[51]
  viability, T/C: 77.9%
[52]
  viability, T/C: 60.3%
[53]
  viability, T/C: 55.9%
[54]
  viability, T/C: 69.2%
[55]
  viability, T/C: 7.27%
[56]
  viability, T/C: 8.04%
[57]
  viability, T/C: 6.95%
[58]
  viability, T/C: 6.36%
[59]
  viability, T/C: 5.59%
[60]
  viability, T/C: 7.04%
